Measured values as given in patent publication EP3184516A1, “CRYSTALLINE INCLUSION COMPLEXES OF MIRABEGRON WITH BETA-CYCLODEXTRIN” (Enantia, S.L., priority 2015, dated 2017).
In brackets after ≈: the same amount, converted by molar mass. Counter-ions that a name gives are not always drawn. Like-named read-outs stand apart in the source and are kept apart here.

How the values were obtained:
[1] = according to EP1440969A1, cited from earlier work
[2] = Water solubility study at room temperature by HPLC analysis of saturated water solutions; type: physicochemical
Procedure: A water solubility study at room temperature was performed comparing Mirabegron Form α and crystalline inclusion complexes of Mirabegron with β-cyclodextrin Forms I and II by HPLC analysis of saturated water solutions.
A slurring of Mirabegron Form α was performed under the same conditions.
A slurring of Mirabegron Form α (20 mg) was performed in the same conditions.

[3] = cited from earlier work
[4] = Solubility tests performed by the present inventors; type: physicochemical
From the text: Two different crystal forms of Mirabegron free base, named as α-form and β-form, were also disclosed in EP1440969A1.

[5] = Kalariya et al., RSC Adv. 2015; cited from earlier work

Nc1nc(CC(=O)Nc2ccc(CCNC[C@H](O)c3ccccc3)cc2)cs1 [Mirabegron Form α, 2-(2-amino-1,3-thiazol-4-yl)-N-[4-(2-{[(2R)-2-hydroxy-2-phenylethyl]amino}ethyl)phenyl]acetamide]
hygroscopicity ([1]; listed as α-form): non-hygroscopic
stability of crystal form ([1]; listed as α-form): stable
HPLC peak area corresponding to Mirabegron ([2]; 20 mg stirred in 0.8 ml of water for 19h, mother liquor (Form I experiment)): 1728 counts
HPLC peak area corresponding to Mirabegron ([2]; 24 mg (Form α 20 mg) stirred in 1 ml of water for 19h, mother liquor (Form II experiment)): 1570 counts
solubility in water (in words) ([3]; according to EP1440969A1): practically insoluble

Nc1nc(CC(=O)Nc2ccc(CCNC[C@H](O)c3ccccc3)cc2)cs1 [Mirabegron, 2-(2-amino-1,3-thiazol-4-yl)-N-[4-(2-{[(2R)-2-hydroxy-2-phenylethyl]amino}ethyl)phenyl]acetamide]
solubility in water at room temperature [4]: less than 50 volumes
degradation under hydrolytic and oxidative stress conditions [5]: degrades
stability under thermal and photolytic conditions [5]: stable
solubility in water ([3]; free base, AusPar / FDA prescribing information): 82 µg/mL (≈ 207 µM)

Nc1nc(CC(=O)Nc2ccc(CCNC[C@H](O)c3ccccc3)cc2)cs1 [dihydrochloride salt]
hygroscopicity [1]: strongly hygroscopic
stability of crystal form [1]: unstable

Nc1nc(CC(=O)Nc2ccc(CCNC[C@H](O)c3ccccc3)cc2)cs1 [β-form, 2-(2-amino-1,3-thiazol-4-yl)-N-[4-(2-{[(2R)-2-hydroxy-2-phenylethyl]amino}ethyl)phenyl]acetamide]
hygroscopicity [1]: low hygroscopicity
stability of crystal form [1]: metastable
